# Measurements reported in US11571485B2, “Peptides and antibodies for detecting changes in alzheimer's disease brain and methods of use thereof” (Sanford Burnham Prebys Medical Discovery Institute, priority 2016, dated 2023).
# Entries after “also recorded” stand apart in the source; their conditions may differ.
# Assays:
# [1] = system: hAPP-J20 mouse brain sections; experiment: Tissue section overlay of FAM-labeled peptides on mouse brain sections; assay type: binding; settings: hAPP-J20 vs age-matched wild-type mice, hippocampal region
# Protocol: (§1) PFA fixed sections were incubated in PBS for 10 minutes, followed by PBS-Triton-x-100 (0.2%) for 10 minutes. Sections were rinsed with PBST, mounted in a slide holder, and subsequently washed with PBS-T during 12 minutes. Slides were blocked with blocking buffer for 60 minutes at room temperature. Then, peptides were incubated at a concentration of 10 μg/mL dissolved in concentrated blocking buffer, for three hours at room temperature. Sections were then washed with three 4-minute washes of PBS-T, and subsequently fixed with PFA for 10 minutes, followed by three 3-minute washes with PBS-T. Sections were then incubated with primary antibody at 1/200 in diluted blocking buffer overnight at 4° C. Later, sections were washed with three 4-minute washes with PBS-T. Slides were then incubated with secondary antibody at 1/200 dilution in diluted blocking buffer for 30 minutes at room temperature, followed by three 4-minute washes of PBS-T. Sections were then counterstained with DAPI for 5 minutes, washed with PBS-T and mounted.
# Tg2576 mouse brain = experiment: In vivo homing of FAM-DAG in Tg2576 mice
# Protocol: (§2) All animal experiments were conducted under an approved protocol of the Institutional Animal Care and Use Committee of Sanford Burnham Prebys Medical Discovery Institute. The following transgenic mouse models were used for peptide homing studies—hAPP-J20 ([…], Nature genetics 1, 345-347 (1992)), Tg2576 (Jacobsen et al., Proc Natl Acad Sci USA 103, 5161-5166 (2006)), and mTHY-1-α-synuclein model (Chesselet et al., Neurotherapeutics 9, 297-314 (2012)). The P13 glioblastoma model is a patient-derived orthotopic xenograft model (Bougnaud et al., Oncotarget, (2016)). Spheroids were cultured as described previously (Bjerkvig et al., J Neurosurg 72, 463-475 (1990)). After two weeks in culture, spheroids (volume 2.5 μl) were stereotactically implanted into the brains of nude mice. Mice were used approximately 6 weeks after tumors were induced, when mice started presenting neurological symptoms. The acute brain injury model was setup as previously described (Mann et al., Nature communications 7, 11980 (2016)). Briefly, 8 to 10 week-old male BL6 mice were anaesthetized with 4% isoflurane in 70% N2O and 30% O2, and a 5-mm craniotomy was performed using a portable drill and a trephine over the right parietotemporal cortex using a stereotactic frame. […]
# [2] = system: hAPP-J20 mouse brain (hippocampus)
# Protocol: The synthetic peptides were labeled with FAM and 100 nmol and were intravenously injected to 9-month old AD mice through the tail vein. The peptides were allowed to circulate for 30 min, after which the mice were perfused with 20 ml of PBS, the brains were collected and snap-frozen in OCT for sectioning. The peptides were detected by anti-FAM staining (green), nuclei were stained with DAPI (blue), and anti-CD31 was used to visualize blood vessels.
# For peptide homing, mice were intravenously injected with 50 nmole peptide dissolved in PBS, and allowed to circulate for 30 min. Mice were then perfused intracardially with saline and all major organs were isolated and fixed in 4% paraformaldehyde (PFA) at pH 7.4 overnight. The organs were then washed with PBS and placed in graded sucrose solutions overnight before optimal cutting temperature compound (OCT) embedding. Ten-micro-meter-thick sections were cut and analyzed by immunostaining.
# Frozen sections were permeabilized using PBS- 0.2% Triton™ X-100 (PBST), blocking was carried out using blocking buffer (5% BSA, 1% goat serum, 1% donkey serum in PBST. Primary antibodies were incubated in diluted (1%) blocking buffer overnight at dilutions 1/100 or 1/200 at 4° C., washed with PBST and incubated with secondary antibodies diluted 1/200 or 1/500 in 1% diluted buffer for 1 hour at room temperature, subsequently washed with PBST, counterstained with DAPI 1 μg/mL in PBS for 5 minutes, washed with PBS, mounted using aqueous mounting media (Vector Biolabs), and imaged using a confocal microscope (Zeiss LSM-710).
# human AD brain sections = experiment: Ex vivo overlay binding to human AD brain sections
# Protocol: as §1
# Postmortem human brain samples were obtained from the New York Brain Bank at Columbia University, New York. The patient was a person with a diagnosis of AD neuropathologic changes ([A3, B3, C3]). The normal brain tissue was obtained from BioChain Institute Inc. (Newark, Calif.). The donor was a person without any neurologic diagnosis on detailed neuropathologic evaluation. The Parkinson's disease brain tissue was obtained from UCSD Pathology bank. Frozen brain tissue was sectioned for immunohistochemistry and ex vivo overlay binding with FAM-peptides.
# [3] = system: mTHY-1/α-synuclein overexpressing mouse model of Parkinson's disease; experiment: In vivo homing in Parkinson's disease mouse model; settings: systemically injected
# Protocol: as §2
# [4] = system: acute penetrating brain injury; experiment: In vivo homing in acute penetrating brain injury model; design: species or system mouse; settings: injected 6 hours after injury
# Protocol: as §2
# [5] = system: hippocampus of hAPP-J20 AD and wild-type mice; experiment: In vivo CX7C T7 phage library screen, sequencing of phage recovered from hippocampus; design: species or system mouse; settings: 9-month AD mouse vs normal mouse hippocampus
# Protocol: In vivo phage screening was conducted using a T7 phage library expressing random peptides with the composition of CXnC (C=cysteine; X=any amino acid; n=7). The mouse model used for this screening is the hAPP-J20 that expresses amyloid precursor protein (APP) with both the Swedish and Indiana mutations (Murrell et al., Science 254, 97-99. (1991); Mullan et al., Nat. Genet. 1, 345-347. (1992)). Peptides homing to the hippocampus of these mice was the focus because the hippocampal region is where the AB-related lesions and damage are most prevalent early on in the disease.
# A CX7C phage library was intravenously injected into 9 month-old AD and wild-type (WT) littermate mice, and allowed to circulate for 30 min, after which mice were perfused with saline, brains were collected, and the hippocampal region was dissected and subjected to phage titration and high throughput sequencing of the phage inserts. A surprise result was that the number of phage recovered from the AD hippocampus samples was much higher than the number recovered from a similar screen on normal littermates of the AD mice (FIG. 1A). […] BBB leakage has also been reported in AD patients.
# Parallel phage library screens were performed on a normal mouse and a 9-month old AD transgenic mouse (J20 hAPP tg mouse line, which expresses transgenic amyloid precursor protein with two disease-related mutations). The library was intravenously injected into anesthetized mice and the hippocampal area of the brain was collected 30 min after intravenous injection of the library, phage was isolated from the tissue samples and subjected to high throughput sequencing of the peptide-encoding inserts in the phage DNA. Table 1 list most abundantly represented peptide from the two kinds of brains, and all peptides with significant representation in the AD brain and absent or nearly absent in the normal brain are listed in Table 2. Two peptides, CASPRLSKC (SEQ ID NO: 3) and CESPLLSEC (SEQ ID NO: 11), from among the highest scoring ones were subjected to detailed studies as described below.
# hAPP-J20 mice were intravenously injected with 1e10 pfu of a CX7C (wherein X is any amino acid) naïve phage library, in 100 μL of PBS. The library was allowed to circulate for 30 minutes, after which mice were anesthetized with 2.5% avertin and perfused with PBS intracardially. The brain was removed and the hippocampus was extracted and homogenized in LB-NP 40 (1%) and phage was processed as described (Teesalu et al., Methods Enzymol 503, 35-56 (2012)). The phages in the lysate were rescued by amplification in E. coli and peptide-encoding portion of the phage genome was sequenced using Ion Torrent high throughput sequencing.
# AD hippocampus = experiment: Homing of intravenously injected individual peptide-displaying phages; assay type: in vivo, mouse; settings: intravenously injected phage displaying the peptide
# From the text: FIG. 1B relates to phage titration showing that about 5 times more phage were recovered from the AD hippocampus than from the normal control. In the sequencing, phages displaying the peptides code named CASP (SEQ ID NO: 3; CASPRLSKC), CES (SEQ ID NO: 11, CESPLLSEC), and DAG (SEQ ID NO: 102, CDAGRKQKC) dominated. Hippocampus from age-matched normal wild-type mouse brain was used as a control.
sequence,measurement,setting,value
CDAGRKQKC,Ex vivo peptide binding to brain sections,[1],bound to a much greater degree in the hippocampal region of hAPP-J20 mice than to age-matched wild-type mice; also recorded: far stronger than DAG binding to WT brain
same,Colocalization in Tg2576 brain sections,"Tg2576 mouse brain; DAG-injected Tg2576 mice, immunostaining",significant colocalization of DAG with Aβ and CD31
same,Homing in Tg2576 model,Tg2576 mouse brain; i.v. FAM-DAG,detected both in the hippocampus and in the cortex
same,Homing in early-stage AD,"[2]; 3-4 month old hAPP-J20 mice, i.v., 30 min","Robust DAG homing in young hAPP-J20 animals was observed, mostly in the cerebrocortex and the hippocampus"
same,Cellular localization in brain,"[2]; DAG-injected hAPP-J20 mice, anti-GFAP and anti-Aβ staining",accumulated within a subpopulation of GFAP-positive hypertrophic astrocytes surrounding the Aβ plaques
same,Accumulation in other organs,"[2]; mouse, in vivo, iv",little if any accumulation of the peptide in other organs of the hAPP-J20 mouse except for kidney
same,Binding to human AD brain sections,human AD brain sections; overlay,bound strongly to the hippocampal region
same,Inhibition of binding to human AD sections by anti-CTGF antibody,human AD brain sections; pre-incubation with anti-CTGF antibody,partially inhibited by pre-incubation with anti-CTGF antibody
same,Accumulation in Parkinson's model brain,[3],accumulated in GFAP-positive astrocytes
same,Homing to brain injury,[4],robustly homed to the perilesional area containing activated hypertrophic astrocytes
same,"Representation in sequenced phage pools, AD versus normal brain",[5],dominated
same,Phage accumulation in normal brain,AD hippocampus,no accumulation in normal brain
same,Phage homing to AD hippocampus,AD hippocampus,home to AD hippocampus with high specificity
